Test [1] has as its target T1, Ba/F3 Bcr-Abl/WT (Homo sapiens, UniProt P00519).
T1 construct: fused on or other part: P11274 (Breakpoint cluster region protein)
Nature of the test: Cell proliferation and cytotoxicity CCK-8 assay. The format is cell-based. The settings on record: imatinib sensitive cell line; CCK-8, 72 h; read-out: Inhibitory concentrations (IC50) Ba/F3 Bcr-Abl/WT. The source says:
(§1) Cell Proliferation and Cytotoxicity CCK-8 Assay:
(§2) Cell Counting Kit-8 (CCK-8) assay is a sensitive colorimetric assay for the determination of number of viable cells in cell proliferation and cytotoxicity assays. Cell Counting Kit-8 (CCK-8) utilizes Dojindo's highly water-soluble tetrazolium salt. The amount of the formazan dye generated by dehydrogenases in cells is directly proportional to the number of living cells.
(§3) The cell lines described in Table 1 were used to test the antiproliferative activity of the compounds of the present invention.
(§4) Cells were seeded at a density of ˜5×10^3 per well (0.09 mL) in a transparent 96-well tissue culture plate (NUNC, USA) and allowed to incubate at 37° C., 5% CO2 incubator for 2-6 h. Different concentrations of compounds of the present invention were added to the wells of the culture plate in triplicate. […] Plates were further incubated in an incubator at 37° C. in presence of 5% CO2 for 72 h. 10 μL of the CCK-8 solution was added to each well and plate was incubated for 1-4 h in the incubator. The absorbance was measured at 450 nm using a microplate reader. The percent inhibition and IC50 were calculated in comparison with control values.
A general note: Tetrazolium dyes change colour on reduction, which living cells bring about.

Test [2] addresses Ba/F3 Bcr-Abl/T315I (Homo sapiens, UniProt P00519, T315I, cells depend on it). To be noted: read-out: Inhibitory concentrations (IC50) Ba/F3 Bcr-Abl/T315I; imatinib resistant cell line; CCK-8, 72 h.
Description: as §1, §2, §3, §4

Test [3] has as its system K562. Nature of the test: Cell proliferation and cytotoxicity CCK-8 assay. The class given is cell-based, human. The settings on record: imatinib sensitive cell line K562, CCK-8, 72 h, read-out: Inhibitory concentrations (IC50) K562.
For test [4], the system named is K562. As to the kind of experiment: Flow cytometric analysis of apoptosis (PI staining). The class given is cell-based, human. How it is done: (§5) Effect of the Compounds of Present Invention in Bcr-Abl Mutated Imatinib Mesylate-Resistant Cell Lines on Cell Cycle and Apoptosis Using Flow Cytometry.
(§6) The assay was carried out as in reference, FEBS Letters, 2007, 581, 7, 1329-1334. […] At the end of incubation, cells were harvested by centrifugation at 1000 rpm for 10 minutes, washed with phosphate buffered saline (PBS) and gradually resuspended in 70% ice-cold ethanol (to facilitate the permeablisation of stains). Cell suspension was stored for a minimum period of 4 h before staining with propidium iodide (PI). Fixed cells were stained with PI (80 μg/mL) in presence of RNase A (50 μg/mL), and read on Becton Dickinson FACS Calibur (USA) for cell cycle analysis.

Test [5] relates to Ba/F3. The test is described as above. The class given is cell-based. How it is done: as §5, §6
For test [6], the system named is Y253. The description is as above. The format is cell-based. How it is done:
as §5, §6

Test [7] relates to E255V. Described as above. The format is cell-based. The method, then: as §5, §6
For test [8], the system named is T315I. The test is described as above. The format is cell-based. How it is done: as §5, §6

Where a name gives a salt, the structure may show the parent alone. Read-outs that look alike come from different tables or passages of the source. Some results are limits rather than exact numbers.

These results are taken from patent US8629277B2, “Styrenyl 1,2,4-oxadiazole compounds” (Piramal Enterprises Limited, priority 2010, dated 2014).

For the compound `Cc1noc(C=Cc2ccc(O)c(O)c2)n1` [Compound of Example 1, 4-[2-(3-Methyl-[1,2,4]oxadiazol-5-yl)-vinyl]-benzene-1,2-diol], the GI50 in test [1] and in test [2] was 11 to 100 µM throughout. In addition, in test [3] (Homo sapiens), the IC50 lay in the range of 11 to 100 µM.

`CCc1noc(C=Cc2ccc(O)c(O)c2)n1` [Compound of Example 2, 4-[2-(3-Ethyl-[1,2,4]oxadiazol-5-yl)-vinyl]-benzene-1,2-diol]: the GI50 in test [1] and in test [2] was under 10 µM in each case. Moreover, the IC50 in test [3] (Homo sapiens) was under 10 µM.

Take `CCCc1noc(C=Cc2ccc(O)c(NS(C)(=O)=O)c2)n1` [Compound of Example 10, N-{2-Hydroxy-5-[2-(3-propyl-[1,2,4]oxadiazol-5-yl)-vinyl]-phenyl}-methanesulfonamide]: the GI50 in test [1] and in test [2] was 11 to 100 µM in each case. In test [3] (Homo sapiens), the IC50 was over 100 µM.

As for `CCCc1nc(C=Cc2ccc(O)c(N)c2)no1` [Compound of Example 12, 2-Amino-4-[2-(5-propyl-[1,2,4]oxadiazol-3-yl)-vinyl]-phenol], the GI50 was 11 to 100 µM in test [1] and under 10 µM in test [2]. The IC50 in test [3] (Homo sapiens) lay in the range of 11 to 100 µM.

On to `CN1CCC(c2noc(C=Cc3ccc(O)c(O)c3)n2)CC1` [Compound of Example 20, 4-[2-(3-Piperidin-4,1-methyl-[1,2,4]oxadiazol-5-yl)-vinyl]-benzene-1,2-diol], for which the GI50 in test [1] and in test [2] was 11 to 100 µM throughout. Besides, the IC50 in test [3] fell in the range of 11 to 100 µM.

`CC(C)N1CCC(Cc2noc(C=Cc3ccc(O)c(O)c3)n2)CC1` [Compound of Example 22, 4-{2-[3-(1-Isopropyl-piperidin-4-ylmethyl)-[1,2,4]oxadiazol-5-yl]-vinyl}-benzene-1,2-diol]: the GI50 in test [1] and in test [2] was 11 to 100 µM each time. In addition, in test [3] (Homo sapiens), the IC50 was 11 to 100 µM.

As to `CN(C)CCN1CCC(Cc2noc(C=Cc3ccc(O)c(O)c3)n2)CC1` [Compound of Example 24, 4-(2-{3-[1-(2-Dimethylamino-ethyl)-piperidin-4-ylmethyl]-[1,2,4]oxadiazol-5-yl}-vinyl)-benzene-1,2-diol], the GI50 in test [1] and in test [2] was 11 to 100 µM in each case. Further, the IC50 in test [3] (Homo sapiens) lay in the range of 11 to 100 µM.

For `Oc1ccc(C=Cc2nc(CC3CCN(Cc4ccccc4)CC3)no2)cc1O` [Compound of Example 31, 4-{2-[3-(1-Benzyl-piperidin-4-ylmethyl)-[1,2,4]oxadiazol-5-yl]-vinyl}-benzene-1,2-diol], the GI50 in test [1] and in test [2] was 11 to 100 µM in each case. Also, in test [3] (Homo sapiens), the IC50 was in the range of 11 to 100 µM.

For the compound `CCCCCCCCCc1noc(C=Cc2ccc(O)c(O)c2)n1` [Compound of Example 34, 4-[2-(3-Nonyl-[1,2,4]oxadiazol-5-yl)-vinyl]-benzene-1,2-diol], the GI50 in test [1] and in test [2] was under 10 µM throughout. The IC50 in test [3] (Homo sapiens) lay within 11 to 100 µM.

In the case of `Oc1ccc(C=Cc2nc(C3CC3)no2)cc1O` [Compound of Example 37, 4-[2-(3-Cyclopropyl-[1,2,4]oxadiazol-5-yl)-vinyl]-benzene-1,2-diol], the GI50 in test [1] and in test [2] was under 10 µM each time. For the same compound, the IC50 in test [3] (Homo sapiens) was under 10 µM.

For `CCCCCc1noc(C=Cc2ccc(O)c(O)c2)n1` [Compound of Example 40, 4-[2-(3-Pentyl-[1,2,4]oxadiazol-5-yl)-vinyl]-benzene-1,2-diol], the GI50 in test [1] and in test [2] was under 10 µM throughout. In addition, in test [3] (Homo sapiens), the IC50 was under 10 µM.

Regarding `CCCCCCc1noc(C=Cc2ccc(O)c(O)c2)n1` [Compound of Example 43], the GI50 in test [1] and in test [2] was under 10 µM each time. Also, in test [3], the IC50 is under 10 µM.

Consider `Oc1ccc(C=Cc2nc(CC3CCCCC3)no2)cc1O` [Compound of Example 46, 4-[2-(3-Cyclohexylmethyl-[1,2,4]oxadiazol-5-yl)-vinyl]-benzene-1,2-diol], for which the GI50 in test [1] and in test [2] was under 10 µM in each case. In addition, the IC50 in test [3] (Homo sapiens) was under 10 µM.

Take `CCCCCCCCc1noc(C=Cc2ccc(O)c(O)c2)n1` [Compound of Example 49, 4-[2-(3-Octyl-[1,2,4]oxadiazol-5-yl)-vinyl]-benzene-1,2-diol]: the GI50 in test [1] and in test [2] was under 10 µM in each case. Also, the IC50 in test [3] (Homo sapiens) is under 10 µM.

As for `CCCCCCCc1noc(C=Cc2ccc(O)c(O)c2)n1` [Compound of Example 52, 4-[2-(3-Heptyl-[1,2,4]oxadiazol-5-yl)-vinyl]-benzene-1,2-diol], the GI50 in test [1] and in test [2] was under 10 µM each time. Further, in test [3] (Homo sapiens), the IC50 is under 10 µM.

For the compound `Oc1ccc(C=Cc2nc(-c3cccnc3)no2)cc1O` [Compound of Example 55, 4-[2-(3-Pyridin-3-yl-[1,2,4]oxadiazol-5-yl)-vinyl]-benzene-1,2-diol], the GI50 in test [1] and in test [2] was under 10 µM throughout. Also, the IC50 in test [3] (Homo sapiens) lay in the range of 11 to 100 µM.

For the compound `Oc1ccc(C=Cc2nc(C3CCCCCC3)no2)cc1O` [Compound of Example 58, 4-[2-(3-Cycloheptyl-[1,2,4]oxadiazol-5-yl)-vinyl]-benzene-1,2-diol], the GI50 in test [1] and in test [2] was under 10 µM throughout. Moreover, in test [3] (Homo sapiens), the IC50 lay in the range of 11 to 100 µM.

For `Oc1ccc(C=Cc2nc(C3CCCCC3)no2)cc1O` [Compound of Example 61, 4-[2-(3-Cyclohexyl-[1,2,4]oxadiazol-5-yl)-vinyl]-benzene-1,2-diol], the GI50 in test [1] and in test [2] was under 10 µM each time. For the same compound, the IC50 in test [3] (Homo sapiens) lay in the range of 11 to 100 µM.

For `Cc1ccc(NC(=O)c2ccc(CN3CCN(C)CC3)cc2)cc1Nc1nccc(-c2cccnc2)n1` [imatinib mesylate, Imatinib mesylate, reference compound], the “% Apoptosis by Flow Cytometry Analysis” value in test [4] (3X IC50, 96 h time point) was 95%; in test [4] (5X IC50, 48 h time point) it was 3.9%; in test [4] (5X IC50, 96 h time point), 92.6%; in test [5] (3X IC50, 96 h time point), 51%; in test [5] (5X IC50, 48 h time point) it was 40.3%; in test [5] (5X IC50, 96 h time point), 31%. For the same compound, the “% Apoptosis by Flow Cytometry Analysis” value in test [6] (3X IC50, 96 h time point) was found to be 85.2%; in test [6] (5X IC50, 48 h time point) it was 78%; in test [6] (5X IC50, 96 h time point), 98.2%; in test [7] (3X IC50, 96 h time point) it was 61%; in test [7] (5X IC50, 48 h time point), 96.7%; in test [7] (5X IC50, 96 h time point), 98.4%. The “% Apoptosis by Flow Cytometry Analysis” value in test [8] (3X IC50, 96 h time point) came out at 26.6%; in test [8] (5X IC50, 48 h time point), 4.3%; in test [8] (5X IC50, 96 h time point), 25.2%.
